Laboratory results published in ChEMBL document CHEMBL1158026, “New jaspamide derivatives from the marine sponge Jaspis splendans collected in Vanuatu” (J Nat Prod, 1999).
≈ marks a conversion by molar mass, not a printed value.

Test: Cytotoxicity against human NSCLC-N6 cells by MTT assay
Assay type: functional, cell-based

Row | Structure (SMILES) | IC50 [mg/L]
1 | C=C1C[C@H](C)C(=O)N[C@@H](C)C(=O)N(C)[C@H](Cc2c(Br)[nH]c3ccccc23)C(=O)N[C@@H](c2ccc(O)cc2)CC(=O)O[C@@H](C)C[C@@H](C)C1O (stereo partly drawn) [JASPAMIDE C] | 1.1 (≈ 1.52 µM)
2 | C/C1=C\[C@H](C)C[C@H](C)OC(=O)C[C@H](c2ccc(O)cc2)NC(=O)[C@@H](Cc2c(Br)[nH]c3ccccc23)N(C)C(=O)[C@H](C)NC(=O)[C@@H](C)C1 [JASPAMIDE] | 0.36 (≈ 0.507 µM)
3 | C=C1C[C@H](C)C(=O)N[C@@H](C)C(=O)N(C)[C@H](Cc2c(Br)[nH]c3ccccc23)C(=O)N[C@@H](c2ccc(O)cc2)CC(=O)O[C@@H](C)C[C@@H](C)C1=O [JASPLAKINOLIDE B] | 3.3 (≈ 4.56 µM)
